≈ marks a conversion by molar mass, not a printed value. Where a name gives a salt, the structure may show the parent alone. Read-outs that look alike come from different tables or passages of the source.
Experiment: Solubility in fasted-state simulated colonic fluid (FaSSCoF) at pH 6.5
Type: physicochemical
Details: for solubility thermodynamic at 24 h: 25 °C, pH 6.5, fassgf or other biorelevant, thermodynamic from solid
Procedure: The solubilities of compounds of the invention in FaSSCoF at pH 6.5 are determined using a modification of a previously-reported procedure (Vertzoni, M., et al. Pharm. Res. 2010, 27, 2187-2196). In place of the bile salt extract employed in the original procedure (which extract is no longer available), the modified procedure uses a mixture of sodium taurochlorate (0.15 g), glycocholic acid (0.15 g), ursodeoxycholic acid (0.05 g), cholic acid (0.05 g), and glycodeoxycholic acid (0.05 g). These five bile acids are ground together with a mortar and pestle to produce a fine white powder that is incorporated into the FaSSCoF, as outlined below.
Tris(hydroxymethyl)aminomethane (Tris; 0.275 g) and maleic acid (0.44 g) are dissolved in water (35 mL) to give a solution whose pH is adjusted to 6.5 by treatment with 0.5M NaOH (ca. 12 mL). The solution is then made up to 50 mL with water. A portion of this Tris/maleate buffer solution (ca. 25 mL) is added to a 0.5 L round-bottomed flask, before being treated with 0.00565 g of the bile acid mixture described above. Solutions of phosphatidylcholine (0.0111 g) in DCM (0.15 mL) and palmitic acid (0.0013 g) in DCM (0.15 mL) are added, then the organic solvent is evaporated off under reduced pressure at 40° C. until a clear solution, with no perceptible DCM odour, is achieved. The volume of the evaporated solution is adjusted to 50 mL by addition of the remainder of Tris/maleate buffer, then BSA (0.115 g) is added, before being dissolved by gentle agitation.
Test compounds are suspended in the pH 6.5 FaSSCoF medium to give a maximum final concentration of 2-10 mg/mL. The suspensions are equilibrated at 25° C. for 24 h, before being filtered through a glass fibre C filter. The filtrates are then diluted as appropriate for injection and quantification by HPLC with reference to a standard. Different volumes of the standard, diluted and undiluted sample solutions are injected and the solubilities are calculated using the peak areas determined by integration of the peak found at the same retention time as the principal peak in the standard injection.

[1] = pH 6.5 FaSSCoF Solubility (mg/mL) Run 1
[2] = pH 6.5 FaSSCoF Solubility (mg/mL) Run 2
[3] = pH 6.5 FaSSCoF Solubility (mg/mL) Run 3
[4] = pH 6.5 FaSSCoF Solubility (mg/mL) Run 4

| Compound | solubility thermodynamic at 24 h [1] [mg/mL] | solubility thermodynamic at 24 h [2] [mg/mL] | other results |
| --- | --- | --- | --- |
| COc1cc(Nc2cc(Oc3ccc(NC(=O)Nc4cc(C(C)(C)C)cc(NS(C)(=O)=O)c4OC)c4ccccc34)ccn2)ccc1C(=O)NCCC(=O)N1C[C@H](O)[C@@H](O)[C@H](O)[C@H]1CO [17(cf), 4-((4-((4-(3-(5-(tert-Butyl)-2-methoxy-3-(methylsulfonamido)phenyl)ureido)naphthalen-1-yl)oxy)pyridin-2-yl)amino)-2-methoxy-N-(3-oxo-3-((2R,3R,4R,5S)-3,4,5-trihydroxy-2-(hydroxymethyl)piperidin-1-yl)propyl)benzamide] | 0.003 (≈ 3.28 µM) | 0.001 (≈ 1.09 µM) | – |
| COc1c(NC(=O)Nc2ccc(Oc3ccnc(Nc4ccc(C(=O)NCCN5CCOCC5)c(N(C)C)c4)c3)c3ccccc23)cc(C(C)(C)C)cc1NS(C)(=O)=O [Example 21, 4-((4-((4-(3-(5-(tert-Butyl)-2-methoxy-3-(methylsulfonamido)phenyl)ureido)naphthalen-1-yl)oxy)pyridin-2-yl)amino)-2-(dimethylamino)-N-(2-morpholinoethyl)benzamide] | 0.01 (≈ 12.1 µM) | 0.01 (≈ 12.1 µM) | – |
| COc1cc(Nc2cc(Oc3ccc(NC(=O)Nc4cc(C(C)(C)C)cc(NS(C)(=O)=O)c4OC)c4ccccc34)ccn2)ccc1C(=O)NCCCC[C@H](N)C(=O)O [17(bu) (dihydrochloride salt), (S)-2-Amino-6-(4-((4-((4-(3-(5-(tert-butyl)-2-methoxy-3-(methylsulfonamido)phenyl)-ureido)naphthalen-1-yl)oxy)pyridin-2-yl)amino)-2-methoxybenzamido)hexanoic acid] | 0.006 | 0.006 | – |
| COc1cc(Nc2cc(Oc3ccc(NC(=O)Nc4cc(C(C)(C)C)cc(NS(C)(=O)=O)c4OC)c4ccccc34)ccn2)ccc1C(=O)N[C@H]1C(O)O[C@H](CO)[C@@H](O)[C@@H]1O (stereo partly drawn) [17(br), 4-((4-((4-(3-(5-(tert-Butyl)-2-methoxy-3-(methylsulfonamido)phenyl)ureido)naphthalen-1-yl)oxy)pyridin-2-yl)amino)-2-methoxy-N-((3R,4R,5S,6R)-2,4,5-trihydroxy-6-(hydroxymethyl)tetrahydro-2H-pyran-3-yl)benzamide] | 0.009 (≈ 10.5 µM) | 0.008 (≈ 9.29 µM) | – |
| COc1cc(Nc2cc(Oc3ccc(NC(=O)Nc4cc(C(C)(C)C)cc(NS(C)(=O)=O)c4OC)c4ccccc34)ccn2)ccc1C(=O)NC[C@@H]1O[C@H](CO)[C@@H](O)[C@H](O)[C@H]1O [17(co), 4-((4-((4-(3-(5-(tert-Butyl)-2-methoxy-3-(methylsulfonamido)phenyl)ureido)naphthalen-1-yl)oxy)pyridin-2-yl)amino)-2-methoxy-N-(((2S,3R,4R,5S,6R)-3,4,5-trihydroxy-6-(hydroxymethyl)tetrahydro-2H-pyran-2-yl)methyl)benzamide] | – | – | solubility thermodynamic at 24 h (FaSSCoF pH 6.5, 25° C., 24 h, Run 1, read-out: pH 6.5 FaSSCoF Solubility (mg/mL) Run 1): 0.005 mg/mL (≈ 5.71 µM); solubility thermodynamic at 24 h (FaSSCoF pH 6.5, 25° C., 24 h, Run 2, read-out: pH 6.5 FaSSCoF Solubility (mg/mL) Run 2): 0.006 mg/mL (≈ 6.86 µM) |
| COc1cc(Nc2cc(Oc3ccc(NC(=O)Nc4cc(C(C)(C)C)cc(NS(C)(=O)=O)c4OC)c4ccccc34)ccn2)ccc1C(=O)NCCNC(=O)CCC(=O)O [17(cd) (hydrochloride salt), 4-((2-(4-((4-((4-(3-(5-(tert-Butyl)-2-methoxy-3-(methylsulfonamido)phenyl)ureido)-naphthalen-1-yl)oxy)pyridin-2-yl)amino)-2-methoxybenzamido)ethyl)amino)-4-oxobutanoic acid] | 0.051 | 0.049 | – |
| COc1cc(Nc2cc(Oc3ccc(NC(=O)Nc4cc(C(C)(C)C)cc(NS(C)(=O)=O)c4OC)c4ccccc34)ccn2)ccc1C(=O)NCCOCCOCCOP(=O)(O)O [19 (sodium salt), 2-(2-(2-(4-((4-((4-(3-(5-(tert-Butyl)-2-methoxy-3-(methylsulfonamido)phenyl)ureido)-naphthalen-1-yl)oxy)pyridin-2-yl)amino)-2-methoxybenzamido)ethoxy)ethoxy)ethyl dihydrogen phosphate] | – | – | pH 6.5 FaSSCoF Solubility (mg/mL) Run 1 (24 h, pH 6.5): >4.7 mg/mL |

More lines, main results first:

| solubility thermodynamic at 24 h [1] [mg/mL] | solubility thermodynamic at 24 h [2] [mg/mL] | Compound | other results |
| --- | --- | --- | --- |
| 0.025 (≈ 28.2 µM) | 0.024 (≈ 27.1 µM) | COc1cc(Nc2cc(Oc3ccc(NC(=O)Nc4cc(C(C)(C)C)cc(NS(C)(=O)=O)c4OC)c4ccccc34)ccn2)cc(OC)c1C(=O)NCCN1CCN(CCO)CC1 [Example 37, 4-((4-((4-(3-(5-(tert-Butyl)-2-methoxy-3-(methylsulfonamido)phenyl)ureido)naphthalen-1-yl)oxy)pyridin-2-yl)amino)-N-(2-(4-(2-hydroxyethyl)piperazin-1-yl)ethyl)-2,6-dimethoxybenzamide] | solubility thermodynamic at 24 h [3]: 0.007 mg/mL (≈ 7.91 µM); solubility thermodynamic at 24 h [4]: 0.006 mg/mL (≈ 6.78 µM) |
| 0.008 (≈ 10.8 µM) | 0.006 (≈ 8.08 µM) | COc1cc(Nc2cc(Oc3ccc(NC(=O)Nc4cc(C(C)(C)C)cc(NS(C)(=O)=O)c4OC)c4ccccc34)ccn2)ccc1C(=O)NCCO [17(bn), 4-((4-((4-(3-(5-(tert-Butyl)-2-methoxy-3-(methylsulfonamido)phenyl)ureido)naphthalen-1-yl)oxy)pyridin-2-yl)amino)-N-(2-hydroxyethyl)-2-methoxybenzamide] | – |
| 0.006 (≈ 6.7 µM) | 0.006 (≈ 6.7 µM) | COc1cc(Nc2cc(Oc3ccc(NC(=O)Nc4cc(C(C)(C)C)cc(NS(C)(=O)=O)c4OC)c4ccccc34)ccn2)ccc1C(=O)NCCN1CCN(C(=O)CN(C)C)CC1 [17(cj), 4-((4-((4-(3-(5-(tert-Butyl)-2-methoxy-3-(methylsulfonamido)phenyl)ureido)naphthalen-1-yl)oxy)pyridin-2-yl)amino)-N-(2-(4-(2-(dimethylamino)acetyl)piperazin-1-yl)ethyl)-2-methoxybenzamide] | – |
| 0.204 | 0.198 | COc1cc(Nc2cc(Oc3ccc(NC(=O)Nc4cc(C(C)(C)C)cc(NS(C)(=O)=O)c4OC)c4ccccc34)ccn2)ccc1C(=O)NCC(=O)O [17(ar) (hydrochloride salt), 2-(4-((4-((4-(3-(5-(tert-Butyl)-2-methoxy-3-(methylsulfonamido)phenyl)ureido)naphthalen-1-yl)oxy)pyridin-2-yl)amino)-2-methoxybenzamido)acetic acid] | – |
| 0.005 (≈ 6.04 µM) | 0.005 (≈ 6.04 µM) | COc1cc(Nc2cc(Oc3ccc(NC(=O)Nc4cc(C(C)(C)C)cc(NS(C)(=O)=O)c4OC)c4ccccc34)ccn2)ccc1C(=O)NCC[N+]1([O-])CCOCC1 [Example 33, 4-(2-(4-((4-((4-(3-(5-(tert-Butyl)-2-methoxy-3-(methylsulfonamido)phenyl)ureido)naphthalen-1-yl)oxy)pyridin-2-yl)amino)-2-methoxybenzamido)ethyl)morpholine 4-oxide] | – |
| 0.021 (≈ 25.4 µM) | 0.026 (≈ 31.5 µM) | COc1cc(Nc2cc(Oc3ccc(NC(=O)Nc4cc(C(C)(C)C)cc(NS(C)(=O)=O)c4OC)c4ccccc34)ccn2)cc(OC)c1C(=O)NC1CCN(C)CC1 [17(bz), 4-((4-((4-(3-(5-(tert-Butyl)-2-methoxy-3-(methylsulfonamido)phenyl)ureido)naphthalen-1-yl)oxy)pyridin-2-yl)amino)-2,6-dimethoxy-N-(1-methylpiperidin-4-yl)benzamide] | solubility thermodynamic at 24 h [3]: 0.014 mg/mL (≈ 16.9 µM); solubility thermodynamic at 24 h [4]: 0.019 mg/mL (≈ 23 µM) |
| 0.029 | 0.028 | COc1cc(Nc2cc(Oc3ccc(NC(=O)Nc4cc(C(C)(C)C)cc(NS(C)(=O)=O)c4OC)c4ccccc34)ccn2)ccc1C(=O)NCCC(=O)O [17(ay) (hydrochloride salt), 3-(4-((4-((4-(3-(5-(tert-Butyl)-2-methoxy-3-(methylsulfonamido)phenyl)ureido)-naphthalen-1-yl)oxy)pyridin-2-yl)amino)-2-methoxybenzamido)propanoic acid] | – |
| 0.011 (≈ 12.9 µM) | 0.011 (≈ 12.9 µM) | COc1cc(Nc2cc(Oc3ccc(NC(=O)Nc4cc(C(C)(C)C)cc(NS(C)(=O)=O)c4OC)c4ccccc34)ccn2)ccc1C(=O)NCCN1CCN(C2CC2)CC1 [Example 26, 4-((4-((4-(3-(5-(tert-Butyl)-2-methoxy-3-(methylsulfonamido)phenyl)ureido)naphthalen-1-yl)oxy)pyridin-2-yl)amino)-N-(2-(4-cyclopropylpiperazin-1-yl)ethyl)-2-methoxybenzamide] | – |
